The test deals with Acinetobacter baumannii ATCC17961. Nature of the test: Antimicrobial susceptibility testing: 90% growth inhibitory concentration (IC90) determination in Iso-Sensitest broth, OD600 growth. Type of test: cell-based. An outline of the steps: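 Twofold compound dilutions (e.g. 50 to 0.097 μM final) in Iso-Sensitest broth with ~5×10^(5) CFU/ml, 35±2 °C. OD600 read every 20 min over 16 h; IC90 from growth inhibition during logarithmic phase.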

Setting [1] is: Acinetobacter baumannii, ATCC17961, 16 h, strain ATCC 17961, OD600 growth over 16 h, read-out: A. baumannii ATCC 17961 IC90.
Where [2] appears, read: Acinetobacter baumannii, ATCC17961, 16 h, read-out: A. baumannii ATCC 17961 IC90 (uM), strain ATCC 17961, OD600 growth over 16 h.
Where [3] appears, read: strain ATCC 17961, OD600 growth over 16 h, read-out: A. baumannii ATCC 17961 IC90.

Structures can show the parent of a compound that is named as a salt. Where two headings read alike, the source gives them in different places.

For orientation: IC90 means the point of the concentration-response curve where the effect stands at 90%.

On to `Cc1cc(Nc2nccn3c(-c4c[nH]nc4C(F)(F)F)cnc23)ccc1C(=O)N1CCN(C(=O)[C@H]2CCNC2)CC1` [Example 333, [2-methyl-4-[[3-[3-(trifluoromethyl)-1H-pyrazol-4-yl]imidazo[1,2-a]pyrazin-8-yl]amino]phenyl]-[4-[(3S)-pyrrolidine-3-carbonyl]piperazin-1-yl]methanone], for which the concentration for an effect of 90% (IC90) under setting [1] was 0.695 µM.

In the case of `CCc1cc(Nc2nccn3c(-c4cn(CC(F)F)nc4C(F)(F)F)cnc23)ccc1C(=O)NCCCN` [Example 52, N-(3-aminopropyl)-4-[[3-[1-(2,2-difluoroethyl)-3-(trifluoromethyl)pyrazol-4-yl]imidazo[1,2-a]pyrazin-8-yl]amino]-2-ethylbenzamide], the IC90 under setting [1] was determined as 0.144 µM.

On to `O=C(c1ccc(Nc2nccn3c(-c4c[nH]nc4C(F)(F)F)cnc23)cc1Cl)N1CCN(C(=O)[C@@H]2CCCN2)CC1` [Example 209, [2-chloro-4-[[3-[3-(trifluoromethyl)-1H-pyrazol-4-yl]imidazo[1,2-a]pyrazin-8-yl]amino]phenyl]-[4-[(2S)-pyrrolidine-2-carbonyl]piperazin-1-yl]methanone], for which the IC90 under setting [1] was found to be 0.105 µM.

For the compound `CCc1cc(Nc2nccn3c(-c4cn(CC#N)nc4C(F)(F)F)cnc23)ccc1C(=O)NCCNC(=O)N1CC[C@@H](N)C1` [Example 520, (R)-3-amino-N-(2-(4-((3-(1-(cyanomethyl)-3-(trifluoromethyl)-1H-pyrazol-4-yl)imidazo [1,2-a]pyrazin-8-yl)amino)-2-ethylbenzamido)ethyl) pyrrolidine-1-carboxamide formate], the concentration for an effect of 90% (IC90) under setting [1] is 0.27 µM.

`C[C@@H](NC(=O)c1ccc(Nc2nccn3c(-c4cn(CC#N)nc4C(F)(F)F)cnc23)cc1Cl)C(=O)N1CCNCC1` [Example 647, 2-chloro-4-[[3-[1-(cyanomethyl)-3-(trifluoromethyl)pyrazol-4-yl]imidazo[1,2-a]pyrazin-8-yl]amino]-N-[(1R)-1-methyl-2-oxo-2-piperazin-1-yl-ethyl]benzamide formate]: the 90% effect concentration (IC90) under setting [2] was determined as 0.244 µM.

Turning to `CCc1cc(Nc2nccn3c(-c4cn(C5COC5)nc4C(F)(F)F)cnc23)ccc1C(=O)NCCOCCN` [Example 241, N-[2-(2-aminoethoxy)ethyl]-2-ethyl-4-[[3-[1-(oxetan-3-yl)-3-(trifluoromethyl)pyrazol-4-yl]imidazo[1,2-a]pyrazin-8-yl]amino]benzamide formate], under setting [2], the IC90 came out at 0.322 µM.

On to `CCc1cc(Nc2nccn3c(-c4cn(CC#N)nc4C(F)(F)F)cnc23)ccc1C(=O)NCCNC(=O)[C@@H](C)N` [Example 625, (R)-N-(2-(2-aminopropanamido)ethyl)-4-((3-(1-(cyanomethyl)-3-(trifluoromethyl)-1H-pyrazol-4-yl)imidazo[1,2-a]pyrazin-8-yl)amino)-2-ethylbenzamide formate], for which the IC90 under setting [2] was determined as 0.176 µM.

Consider `CCc1cc(Nc2nccn3c(-c4cn(Cc5cc[nH]n5)nc4C(F)(F)F)cnc23)ccc1C(=O)NC` [Example 15, 2-ethyl-N-methyl-4-[[3-[1-(1H-pyrazol-3-ylmethyl)-3-(trifluoromethyl)pyrazol-4-yl]imidazo[1,2-a]pyrazin-8-yl]amino]benzamide], for which the 90% effect concentration (IC90) under setting [1] came to 0.251 µM.

In the case of `O=C(NC1CN(C(=O)[C@@H]2C[C@@H](O)CN2)C1)c1ccc(Nc2nccn3c(-c4c[nH]nc4C(F)(F)F)cnc23)cc1Cl` [Example 371, 2-chloro-N-[1-[(2S,4R)-4-hydroxypyrrolidine-2-carbonyl]azetidin-3-yl]-4-[[3-[3-(trifluoromethyl)-1H-pyrazol-4-yl]imidazo[1,2-a]pyrazin-8-yl]amino]benzamide], the IC90 under setting [1] is 0.309 µM.

`N#CCn1cc(-c2cnc3c(Nc4ccc(C(=O)N5CCN(C(=O)N6CC[C@H](N)C6)CC5)c(Cl)c4)nccn23)c(C(F)(F)F)n1` [Example 180, 2-[4-[8-[4-[4-[(3S)-3-aminopyrrolidine-1-carbonyl]piperazine-1-carbonyl]-3-chloroanilino]imidazo[1,2-a]pyrazin-3-yl]-3-(trifluoromethyl)pyrazol-1-yl]acetonitrile formate]: under setting [2], the IC90 is 0.182 µM.

`CCc1cc(Nc2nccn3c(-c4cn(CC(F)F)nc4C(F)(F)F)cnc23)ccc1C(=O)NCCNC(=O)[C@H](C)N` [Example 616, (S)-N-(2-(2-aminopropanamido)ethyl)-4-((3-(1-(2,2-difluoroethyl)-3-(trifluoromethyl)-1H-pyrazol-4-yl)imidazo[1,2-a]pyrazin-8-yl)amino)-2-ethylbenzamide formate]: the IC90 under setting [2] was 0.153 µM.

`Cc1cc(Nc2nccn3c(-c4c[nH]nc4C(F)(F)F)cnc23)ccc1C(=O)N1CCN(C(=O)[C@H]2CNC[C@H](O)C2)CC1` (racemic) [Example 439, [2-methyl-4-[[3-[3-(trifluoromethyl)-1H-pyrazol-4-yl]imidazo[1,2-a]pyrazin-8-yl]amino]phenyl]-[4-[rac-(3R,5R)-5-hydroxypiperidine-3-carbonyl]piperazin-1-yl]methanone hydrochloride]: the IC90 under setting [1] worked out at 0.834 µM.

`CCc1cc(Nc2nccn3c(-c4cn(CCN)nc4C(F)(F)F)cnc23)ccc1C(=O)NC` [Example 283, 4-[[3-[1-(2-aminoethyl)-3-(trifluoromethyl)pyrazol-4-yl]imidazo[1,2-a]pyrazin-8-yl]amino]-2-ethyl-N-methylbenzamide]: the concentration for an effect of 90% (IC90) under setting [1] came to 1.56 µM.

For the compound `CCc1cc(Nc2nccn3c(-c4cn(CC(F)F)nc4C(F)(F)F)cnc23)ccc1C(=O)NCCNC(=O)N1CC[C@H](N)C1` [Example 489, (S)-3-amino-N-(2-(4-((3-(1-(2,2-difluoroethyl)-3-(trifluoromethyl)-1H-pyrazol-4-yl)imidazo[1,2-a]pyrazin-8-yl)amino)-2-ethylbenzamido)ethyl)pyrrolidine-1-carboxamide formate], the IC90 under setting [1] was found to be 0.184 µM.

As to “4-[2-chloro-4- [[3-[1-(2- cyanoethyl)-3- pyrazol-4- yl]imidazo[1,2- a]pyrazin-8- yl]amino]benzoyl]- N-[(3R)- pyrrolidin-3- yl]piperazine-1- carboxamide formate [Example 261]”, the IC90 under setting [3] is 0.521 µM.

For the compound `CCc1cc(Nc2nccn3c(-c4cn(CCC(C)C)nc4C(F)(F)F)cnc23)ccc1C(=O)NCCOCCN` [Example 28, N-[2-(2-aminoethoxy)ethyl]-2-ethyl-4-[[3-[1-(3-methylbutyl)-3-(trifluoromethyl)pyrazol-4-yl]imidazo[1,2-a]pyrazin-8-yl]amino]benzamide formate], the IC90 under setting [2] turned out to be 0.369 µM.

Regarding `CCc1cc(Nc2nccn3c(-c4cn(CCF)nc4C(F)(F)F)cnc23)ccc1C(=O)N1CCN(C(=O)C2CCNCC2)CC1` [Example 71, [2-ethyl-4-[[3-[1-(2-fluoroethyl)-3-(trifluoromethyl)pyrazol-4-yl]imidazo[1,2-a]pyrazin-8-yl]amino]phenyl]-[4-(piperidine-4-carbonyl)piperazin-1-yl]methanone], the IC90 under setting [1] worked out at 0.593 µM.

For the compound `CCc1cc(Nc2nccn3c(-c4cn(CC(F)F)nc4C(F)(F)F)cnc23)ccc1C(=O)NCCCNC(=O)[C@H]1C[C@@H](N)C1` [Example 541, N-(3-((1s,3s)-3-aminocyclobutane-1-carboxamido)propyl)-4-((3-(1-(2,2-difluoroethyl)-3-(trifluoromethyl)-1H-pyrazol-4-yl)imidazo[1,2-a]pyrazin-8-yl)amino)-2-ethylbenzamide formate], the IC90 under setting [1] was determined as 0.246 µM.

On to `NC1CCC(NC(=O)N2CCN(C(=O)c3ccc(Nc4nccn5c(-c6c[nH]nc6C(F)(F)F)cnc45)cc3Cl)CC2)CC1` (stereo not drawn) [Example 287, N-(4-aminocyclohexyl)-4-[2-chloro-4-[[3-[3-(trifluoromethyl)-1H-pyrazol-4-yl]imidazo[1,2-a]pyrazin-8-yl]amino]benzoyl] piperazine-1-carboxamide formate], for which the IC90 under setting [3] was determined as 0.23 µM.

As for `O=C(c1ccc(Nc2nccn3c(-c4c[nH]nc4C(F)(F)F)cnc23)cc1Cl)N1CCN(C(=O)C2(O)CCCNC2)CC1` (stereo not drawn) [Example 352, [2-chloro-4-[[3-[3-(trifluoromethyl)-1H-pyrazol-4-yl]imidazo[1,2-a]pyrazin-8-yl]amino]phenyl]-[4-(3-hydroxypiperidine-3-carbonyl)piperazin-1-yl]methanone], the concentration for an effect of 90% (IC90) under setting [1] was found to be 0.229 µM.

Consider `N#CCn1cc(-c2cnc3c(Nc4ccc(C(=O)N5CCN(C(=O)[C@H]6[C@@H]7CNC[C@@H]76)CC5)c(Cl)c4)nccn23)c(C(F)(F)F)n1` [Example 481, 2-(4-(8-((4-(4-((1R,5S,6r)-3-azabicyclo[3.1.0]hexane-6-carbonyl)piperazine-1-carbonyl)-3-chlorophenyl)amino)imidazo[1,2-a]pyrazin-3-yl)-3-(trifluoromethyl)-1H-pyrazol-1-yl)acetonitrile formate], for which the 90% effect concentration (IC90) under setting [1] was found to be 0.117 µM.

Consider `C[C@@H](NC(=O)c1ccc(Nc2nccn3c(-c4c[nH]nc4C(F)(F)F)cnc23)cc1Cl)C(=O)N[C@H]1CCNC1` [Example 96, 2-chloro-N-[(2R)-1-oxo-1-[[(3S)-pyrrolidin-3-yl]amino]propan-2-yl]-4-[[3-[3-(trifluoromethyl)-1H-pyrazol-4-yl]imidazo[1,2-a]pyrazin-8-yl]amino]benzamide formate], for which the concentration for an effect of 90% (IC90) under setting [2] turned out to be 1.63 µM.

For `CCc1cc(Nc2nccn3c(-c4cn(CC#N)nc4C(F)(F)F)cnc23)ccc1C(=O)NCCNC(=O)[C@@H]1CC[C@H](N)C1` [Example 494, N-(2-((1R,3S)-3-aminocyclopentane-1-carboxamido)ethyl)-4-((3-(1-(cyanomethyl)-3-(trifluoromethyl)-1H-pyrazol-4-yl)imidazo[1,2-a]pyrazin-8-yl)amino)-2-ethylbenzamide formate], the IC90 under setting [1] worked out at 0.157 µM.

With `C#CCNCCCNC(=O)c1c(C)cc(Nc2nccn3c(-c4cn(CC#C)nc4C(F)(F)F)cnc23)cc1F` [Example 72, 2-fluoro-6-methyl-N-[3-(prop-2-ynylamino)propyl]-4-[[3-[1-prop-2-ynyl-3-(trifluoromethyl)pyrazol-4-yl]imidazo[1,2-a]pyrazin-8-yl]amino]benzamide], the concentration for an effect of 90% (IC90) under setting [1] was determined as 0.599 µM.
